Measured values published in patent US12187721B2, “Protein tyrosine phosphatase inhibitors” (Array BioPharma Inc., priority 2018, dated 2025).
pIC50: −log10 of the molar value.

Target: T1, full-length SHP2 (His6-tagged SHP2(2-527)) (Homo sapiens, UniProt Q06124)
T1 construct: His6-tagged SHP2(2-527); His6; made in house; host or cells: E. coli
Experiment: SHP2 Enzymatic Assay (fluorescence intensity kinetic assay, DiFMUP hydrolysis)
Assay type: biochemical
Outline: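 1 nM His6-SHP2(2-527), activated by 1 μM bis-phosphopeptide, hydrolysed 50 μM DiFMUP in 25 mM HEPES pH 7.4 with 1 mM DTT, 50 mM KCl and 2% DMSO. DiFMU fluorescence (Ex 355/Em 460 nm) was read kinetically for 15 min at ambient temperature.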

T1 sequence (Q06124 2-527): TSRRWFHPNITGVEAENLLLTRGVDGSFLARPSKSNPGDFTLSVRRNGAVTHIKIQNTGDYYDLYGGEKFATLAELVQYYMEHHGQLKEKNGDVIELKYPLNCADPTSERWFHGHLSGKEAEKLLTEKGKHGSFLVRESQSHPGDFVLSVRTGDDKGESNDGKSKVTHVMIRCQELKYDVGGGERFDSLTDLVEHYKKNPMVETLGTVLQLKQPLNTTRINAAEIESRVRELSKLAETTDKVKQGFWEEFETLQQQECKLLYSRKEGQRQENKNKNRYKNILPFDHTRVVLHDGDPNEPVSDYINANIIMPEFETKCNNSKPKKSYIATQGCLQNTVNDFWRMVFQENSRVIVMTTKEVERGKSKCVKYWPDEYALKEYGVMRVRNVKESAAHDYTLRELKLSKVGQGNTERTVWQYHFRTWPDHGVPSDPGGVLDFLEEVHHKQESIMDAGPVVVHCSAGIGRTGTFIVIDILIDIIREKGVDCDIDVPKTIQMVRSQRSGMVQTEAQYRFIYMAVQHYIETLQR

Structure (SMILES) | pIC50
Nc1nccc(Sc2ccc3nc(N4C[C@H]5C[C@H](N)[C@@H](C4)O5)cnc3n2)c1Cl [Example 58, (1R,5R,6S)-3-(6-((2-amino-3-chloropyridin-4-yl)thio)pyrido[2,3-b]pyrazin-2-yl)-8-oxa-3-azabicyclo[3.2.1]octan-6-amine] | 6.82
NCC1CN(c2cnc3nc(-c4ccccc4)ccc3n2)CCO1 (stereo not shown) [Example 65, (4-(6-phenylpyrido[2,3-b]pyrazin-2-yl)morpholin-2-yl)methanamine] | 5.24
Cc1nc(Cl)ccc1Sc1ccc2nc(N3CCC(C)(N)CC3)cnc2n1 [Example 96, 1-(6-((6-chloro-2-methylpyridin-3-yl)thio)pyrido[2,3-b]pyrazin-2-yl)-4-methylpiperidin-4-amine] | 6.30
COCC1(N)CCN(c2cnc3nc(Sc4ccnc(N)c4Cl)ccc3n2)CC1 [Example 53, 4-((2-(4-amino-4-(methoxymethyl)piperidin-1-yl)pyrido[2,3-b]pyrazin-6-yl)thio)-3-chloropyridin-2-amine] | 6.91
Nc1nccc(Sc2ccc3nc(N4CC5CNCC(C4)O5)cnc3n2)c1Cl [Example 206, 4-((2-(9-oxa-3,7-diazabicyclo[3.3.1]nonan-3-yl)pyrido[2,3-b]pyrazin-6-yl)thio)-3-chloropyridin-2-amine] | 5.69
Nc1nccc(Sc2ccc3nc(N4CC5CCC(N)C5C4)cnc3n2)c1Cl (stereo not shown) [Example 100, 2-(6-((2-amino-3-chloropyridin-4-yl)thio)pyrido[2,3-b]pyrazin-2-yl)octahydrocyclopenta[c]pyrrol-4-amine] | 6.92
Nc1nccc(Sc2ccc3nc(N4CCO[C@@H]5CNC[C@H]54)cnc3n2)c1Cl [Example 215, 3-chloro-4-((2-((4aR,7aR)-hexahydropyrrolo[3,4-b][1,4]oxazin-4(4aH)-yl)pyrido[2,3-b]pyrazin-6-yl)thio)235yridine-2-amine] | 6.11
N[C@@H]1c2ccccc2CC12CCN(c1cnc3nc(Sc4ccnc(NCCO)c4Cl)ccc3n1)CC2 [Example 110, (S)-2-((4-((2-(1-amino-1,3-dihydrospiro[indene-2,4′-piperidin]-1′-yl)pyrido[2,3-b]pyrazin-6-yl)thio)-3-chloropyridin-2-yl)amino)ethan-1-ol] | 7.36
NCC1(F)CCN(c2cnc3nc(Sc4ccnc(N)c4Cl)ccc3n2)CC1 [Example 211, 4-((2-(4-(aminomethyl)-4-fluoropiperidin-1-yl)pyrido[2,3-b]pyrazin-6-yl)thio)-3-chloropyridin-2-amine] | 7.27
Nc1nccc(Sc2ccc3nc(N4CC5(Cc6ccccc6[C@H]5N)C4)cnc3n2)c1Cl [Example 124, (R)-1-(6-((2-amino-3-chloropyridin-4-yl)thio)pyrido[2,3-b]pyrazin-2-yl)-1′,3′-dihydrospiro[azetidine-3,2′-inden]-1′-amine] | 7.28
C[C@@H]1OCC2(CCN(c3cnc4nc(Sc5c(F)cnc6[nH]ccc56)ccc4n3)CC2)[C@@H]1N [Example 141, (3S,4S)-8-(6-((5-fluoro-1H-pyrrolo[2,3-b]pyridin-4-yl)thio)pyrido[2,3-b]pyrazin-2-yl)-3-methyl-2-oxa-8-azaspiro[4.5]decan-4-amine] | 7.13
Nc1nccc(Sc2ccc3nc(N4CCCC45CC(N)C5)cnc3n2)c1Cl (stereo not shown) [Example 154, 5-(6-((2-amino-3-chloropyridin-4-yl)thio)pyrido[2,3-b]pyrazin-2-yl)-5-azaspiro[3.4]octan-2-amine] | 5.92
COc1ccc(F)c(-c2ccc3nc(N4CCC(C)(N)CC4)cnc3n2)c1Cl [Example 26, 1-(6-(2-chloro-6-fluoro-3-methoxyphenyl)pyrido[2,3-b]pyrazin-2-yl)-4-methylpiperidin-4-amine] | 6.04
C[C@H]1CC[C@H](N)CN1c1cnc2nc(Sc3ccnc(N)c3Cl)ccc2n1 [Example 216, 4-((2-((2S,5S)-5-amino-2-methylpiperidin-1-yl)pyrido[2,3-b]pyrazin-6-yl)thio)-3-chloropyridin-2-amine] | 5.51
C[C@@H]1OCC2(CCN(c3cnc4nc(Sc5ccncc5Cl)ccc4n3)CC2)[C@@H]1N [Example 187, (3S,4S)-8-(6-((3-chloropyridin-4-yl)thio)pyrido[2,3-b]pyrazin-2-yl)-3-methyl-2-oxa-8-azaspiro[4.5]decan-4-amine] | 6.58
C[C@@H]1OCC2(CCN(c3cnc4nc(N5CCCc6ncccc65)ccc4n3)CC2)[C@@H]1N [Example 135, (3S,4S)-8-(6-(3,4-dihydro-1,5-naphthyridin-1(2H)-yl)pyrido[2,3-b]pyrazin-2-yl)-3-methyl-2-oxa-8-azaspiro[4.5]decan-4-amine] | 5.40
Cc1nccc(Sc2ccc3nc(N4CCC(C)(N)CC4)cnc3n2)c1Cl [Example 94, 1-(6-((3-chloro-2-methylpyridin-4-yl)thio)pyrido[2,3-b]pyrazin-2-yl)-4-methylpiperidin-4-amine] | 7.31

Structure (SMILES) | pIC50
N#Cc1ccc2c(c1)[C@H](N)C1(CCN(c3cnc4nc(Sc5ccnc(N)c5Cl)ccc4n3)CC1)C2 [Example 111, (R)-1-amino-1′-(6-((2-amino-3-chloropyridin-4-yl)thio)pyrido[2,3-b]pyrazin-2-yl)-1,3-dihydrospiro[indene-2,4′-piperidine]-6-carbonitrile] | 7.47
Nc1nccc(Sc2ccc3nc(N4CCC5(CC4)Cc4cccnc4C5N)cnc3n2)c1Cl (stereo not shown) [Example 158, 1′-(6-((2-amino-3-chloropyridin-4-yl)thio)pyrido[2,3-b]pyrazin-2-yl)-5,7-dihydrospiro[cyclopenta[b]pyridine-6,4′-piperidin]-7-amine] | 6.97
C[C@@H]1OCC2(CCN(c3cnc4nc(Sc5cccnc5C(F)(F)F)ccc4n3)CC2)[C@@H]1N [Example 221, (3S,4S)-3-methyl-8-(6-((2-(trifluoromethyl)pyridin-3-yl)thio)pyrido[2,3-b]pyrazin-2-yl)-2-oxa-8-azaspiro[4.5]decan-4-amine] | 6.74
Nc1nccc(Sc2ccc3nc(N4C[C@H]5CC[C@@H](C4)[C@@H]5N)cnc3n2)c1Cl [Example 199, (1R,5S,8s)-3-(6-((2-amino-3-chloropyridin-4-yl)thio)pyrido[2,3-b]pyrazin-2-yl)-3-azabicyclo[3.2.1]octan-8-amine] | 6.46
Cc1cccc2c1CC1(CCN(c3cnc4nc(Sc5ccnc(N)c5Cl)ccc4n3)CC1)[C@H]2N [Example 168, (R)-1′-(6-((2-amino-3-chloropyridin-4-yl)thio)pyrido[2,3-b]pyrazin-2-yl)-4-methyl-1,3-dihydrospiro[indene-2,4′-piperidin]-1-amine] | 7.27
C[C@@H]1C[C@H](N)CCN1c1cnc2nc(Sc3ccnc(N)c3Cl)ccc2n1 [Example 121, 4-((2-((2R,4R)-4-amino-2-methylpiperidin-1-yl)pyrido[2,3-h]pyrazin-6-yl)thio)-3-chloropyridin-2-amine] | 7.00
Nc1nccc(Sc2ccc3nc(N4CCC(N)CC4)cnc3n2)c1Cl [Example 81, 4-((2-(4-aminopiperidin-1-yl)pyrido[2,3-b]pyrazin-6-yl)thio)-3-chloropyridin-2-amine] | 7.14
CC1(CN)CCN(c2cnc3nc(-c4cccc(Cl)c4Cl)ccc3n2)CC1 [Example 27, (1-(6-(2,3-dichlorophenyl)pyrido[2,3-b]pyrazin-2-yl)-4-methylpiperidin-4-yl)methanamine] | 6.30
COc1cccc(Sc2ccc3nc(N4CCC(C)(N)CC4)cnc3n2)c1Cl [Example 14, 1-(6-((2-chloro-3-methoxyphenyl)thio)pyrido[2,3-b]pyrazin-2-yl)-4-methylpiperidin-4-amine] | 7.00
C[C@@]1(N)CCN(c2cnc3nc(Sc4ccnc(N)c4Cl)ccc3n2)C1 [Example 24, (R)-4-((2-(3-amino-3-methylpyrrolidin-1-yl)pyrido[2,3-b]pyrazin-6-yl)thio)-3-chloropyridin-2-amine] | 6.70
Cc1c[nH]c2nccc(Sc3ccc4nc(N5CCC6(CC5)CO[C@@H](C)[C@H]6N)cnc4n3)c12 [Example 139, (3S,4S)-3-methyl-8-(6-((3-methyl-1H-pyrrolo[2,3-b]pyridin-4-yl)thio)pyrido[2,3-b]pyrazin-2-yl)-2-oxa-8-azaspiro[4.5]decan-4-amine] | 7.03
C[C@@H]1OCC2(CCN(c3cnc4nc(Sc5ccc(N)nc5Cl)ccc4n3)CC2)[C@@H]1N [Example 105, (3S,4S)-8-(6-((6-amino-2-chloropyridin-3-yl)thio)pyrido[2,3-b]pyrazin-2-yl)-3-methyl-2-oxa-8-azaspiro[4.5]decan-4-amine] | 7.09
Nc1nccc(Sc2ccc3nc(N4[C@@H]5CC[C@H]4[C@@H](N)C5)cnc3n2)c1Cl [Example 213, (1S,2S,4R)-7-(6-((2-amino-3-chloropyridin-4-yl)thio)pyrido[2,3-b]pyrazin-2-yl)-7-azabicyclo[2.2.1]heptan-2-amine] | 6.95
Cc1nccc(Sc2ccc3nc(N4CCC5(CC4)CO[C@@H](C)[C@H]5N)cnc3n2)c1C [Example 174, (3S,4S)-8-(6-((2,3-dimethylpyridin-4-yl)thio)pyrido[2,3-b]pyrazin-2-yl)-3-methyl-2-oxa-8-azaspiro[4.5]decan-4-amine] | 6.47
CC(C)(C)OC(=O)N[C@H]1[C@@H]2C[C@H]1CN(c1cnc3nc(Sc4ccnc(N)c4Cl)ccc3n1)C2 [Example 138] | 6.24
CN(C)C1(C)CCN(c2cnc3nc(-c4cccc(Cl)c4Cl)ccc3n2)CC1 [Example 18, 1-(6-(2,3-dichlorophenyl)pyrido[2,3-b]pyrazin-2-yl)-N,N,4-trimethylpiperidin-4-amine] | 6.24
CC(=O)N1CCN(c2nccc(Sc3ccc4nc(N5CCC6(CC5)CO[C@@H](C)[C@H]6N)cnc4n3)c2Cl)CC1 [Example 80, 1-(4-(4-((2-((3S,4S)-4-amino-3-methyl-2-oxa-8-azaspiro[4.5]decan-8-yl)pyrido[2,3-b]pyrazin-6-yl)thio)-3-chloropyridin-2-yl)piperazin-1-yl)ethan-1-one] | 6.13
